Source: ChEMBL document CHEMBL1137707, “First-principle, structure-based prediction of hepatic metabolic clearance values in human” (Eur J Med Chem, 2009)

Legend:
[1] = (§1) Hepatic clearance in human hepatocytes in absence of fetal calf serum
[2] = test system: Hepatocyte; experiment: as §1; conditions: hepatocytes

Structure (SMILES)	CLhep predicted ([1]; human hepatocytes) [mL/min/kg]	logCL [2]	CLhep predicted ([1]; hepatocytes) [mL/min/kg]	CL [2] [mL/min/kg]
O=C1CC2(CCCC2)CC(=O)N1CCCCN1CCN(c2ncccn2)CC1 [BUSPIRONE]	19.2	1.2833		
CN1C(C(=O)Nc2ccccn2)=C(O)c2sccc2S1(=O)=O [TENOXICAM]		-1.1367	0.073	
COc1ccc([C@@H]2Sc3ccccc3N(CCN(C)C)C(=O)[C@@H]2OC(C)=O)cc1 [DILTIAZEM]	12.8	1.1072		
CCCCNC(=O)NS(=O)(=O)c1ccc(C)cc1 [TOLBUTAMIDE]		-0.5229	0.3	
CC(C)(C)NC[C@H](O)COc1nsnc1N1CCOCC1 [TIMOLOL]		0.9624	9.17	
O=C1Nc2ccc(Cl)cc2C(c2ccccc2Cl)=NC1O (stereo unspecified) [LORAZEPAM]	1.1	0.0414		
COCCc1ccc(OCC(O)CNC(C)C)cc1 (stereo unspecified) [METOPROLOL]	12.2	1.0846		
CCCc1nn(C)c2c(=O)[nH]c(-c3cc(S(=O)(=O)N4CCN(C)CC4)ccc3OCC)nc12		0.7782		
Cc1ccc(C)c(OCCCC(C)(C)C(=O)O)c1 [GEMFIBROZIL]		0.49	3.09	
C=CCN1CC[C@]23c4c5ccc(O)c4O[C@H]2C(=O)CC[C@@]3(O)[C@H]1C5 [NALOXONE]	19.5	1.29		
Cc1ncc2n1-c1ccc(Cl)cc1C(c1ccccc1F)=NC2 [MIDAZOLAM]		0.8195	6.6	
CC(C)c1nc(CN(C)C(=O)N[C@H](C(=O)N[C@@H](Cc2ccccc2)C[C@H](O)[C@H](Cc2ccccc2)NC(=O)OCc2cncs2)C(C)C)cs1 [RITONAVIR]	1.2	0.0792		
CCOc1ccc(NC(C)=O)cc1 [PHENACETIN]		1.2833		
CCN(CC)CC(=O)Nc1c(C)cccc1C [LIDOCAINE]		1.1761		
COc1ccc2c(c1)c(CC(=O)O)c(C)n2C(=O)c1ccc(Cl)cc1 [INDOMETHACIN]	2.24	0.3502		
CCCCC1=NC2(CCCC2)C(=O)N1Cc1ccc(-c2ccccc2-c2nnn[nH]2)cc1 [IRBESARTAN]		0.5855		3.85
O=C(O)Cc1ccccc1Nc1c(Cl)cccc1Cl [DICLOFENAC]		0.8651	7.33	

Structure (SMILES)	CLhep predicted ([1]; human hepatocytes) [mL/min/kg]	logCL [2]	CLhep predicted ([1]; hepatocytes) [mL/min/kg]	CL [2] [mL/min/kg]
CC(=O)CC(c1ccccc1)c1c(O)c2ccccc2oc1=O (stereo unspecified) [WARFARIN]	0.16	-0.7959		
O=C(O)c1cc(-c2ccc(F)cc2F)ccc1O [DIFLUNISAL]		-0.7447	0.18	
CN(C)CCCN1c2ccccc2Sc2ccc(Cl)cc21 [CHLORPROMAZINE]		0.9345		8.6
Cc1c(C)c2c(c(C)c1O)CCC(C)(COc1ccc(CC3SC(=O)NC3=O)cc1)O2 (stereo unspecified) [TROGLITAZONE]	9	0.9542		
C[C@H]1C[C@@H]2[C@H]([C@@H](O)C[C@@]3(C)[C@H]2CC[C@]3(O)C(=O)CO)[C@@]2(C)C=CC(=O)C=C12 [METHYLPREDNISOLONE]	7.5	0.8751		
Cc1nccn1CC1CCc2c(c3ccccc3n2C)C1=O (stereo unspecified) [ONDANSETRON]	5.9	0.7709		
COc1ccccc1OCCNCC(O)COc1cccc2[nH]c3ccccc3c12 (stereo unspecified) [CARVEDILOL]		0.9395	8.7	
C[C@]12C=CC(=O)C=C1CC[C@@H]1[C@@H]2[C@@H](O)C[C@@]2(C)[C@H]1CC[C@]2(O)C(=O)CO [PREDNISOLONE]	8.7	0.9395		
Cn1c(=O)c2c(ncn2C)n(C)c1=O [CAFFEINE]	1.4	0.1461		
Cc1cn([C@H]2C[C@H](N=[N+]=[N-])[C@@H](CO)O2)c(=O)[nH]c1=O [ZIDOVUDINE]	12.4	1.0934		
Cn1c(=O)c2[nH]cnc2n(C)c1=O.O [THEOPHYLLINE]	0.65	-0.1871		
CC(C)(O)c1ccccc1CC[C@@H](SCC1(CC(=O)O)CC1)c1cccc(/C=C/c2ccc3ccc(Cl)cc3n2)c1 [MONTELUKAST]	1.27	0.1038		
CCc1cccc2c3c([nH]c12)C(CC)(CC(=O)O)OCC3 (stereo unspecified) [ETODOLAC]	1.31	0.1173		
CC(C(=O)O)c1cccc(Oc2ccccc2)c1 (stereo unspecified) [FENOPROFEN]		0.2279		
CN1C(=O)CN=C(c2ccccc2)c2cc(Cl)ccc21 [DIAZEPAM]		-0.3665		
CN1C2CCCC1CC(NC(=O)c1nn(C)c3ccccc13)C2 (stereo unspecified) [GRANISETRON]	11	1.0414		
